Consider 1 compound from patent EP4623911A1, “PI4KB INHIBITORS FOR THE TREATMENT OF FATTY LIVER DISEASE” (ETH Zurich, priority 2024, dated 2025).

In the assay the test system is ATGL. Kind of assay: ATGL protein quantification via immunoblot in HEK293T cell type. It is filed as cell-based, human. The conditions noted are these: Golgi Ptdlns4P depleted by UCB9608, then glucose deprivation. The procedure: HEK293T and HEK293-AAV cell types were cultured in DMEM (high glucose) with 10% FBS and 1% Pen/Strep. HEK293-AAV cell type was used for imaging whereas HEK293T cells were adopted for the rest of the work. To overexpress EGFP-P4M, EGFP-SACM1L, EGFP-SACM1LK2A, ATGL-FLAG, ATGL-HA, ATGLK0-HA and FBXW8-FLAG in the HEK cells, Lipofectamine 2000 was used to deliver these plasmids for 24 h expression at 60-80% cell confluence according to the manufacturer's instructions, followed by specific treatments based on experimental designs. To image LDs abundance, HEK293-AAV cell type was induced by 200 µM oleic acid (OA, 01008 from Sigma) conjugated to bovine serum albumin (BSA, A6003 from Sigma) to generate LDs for 24 h prior to 4% PFA fixation. Afterwards, cells were stained by BODIPY 493/503 and Hoechst 33342 for LDs and nuclei labelling, respectively. In other conditions, HEK cells were not treated with OA containing medium. […]
Adipose depots, liver pieces, differentiated iBAs, HepG2, HEK293T and HEK293-AAV cell types were homogenized in RIPA buffer (50 mM Tris-HCl pH 7.4, 150 mM NaCl, 2 mM EDTA, 1.0% Triton X100, 0.5% sodium deoxycholate) with protease inhibitors (Complete, Roche) and phosphatase inhibitors (Halt phosphatase inhibitor cocktail, ThermoFisher). […] The concentration of WCE was determined by DC Protein Assay (Bio-Rad). […]
(In western blotting, separated proteins are transferred to a membrane and probed.)

As to `COc1ccc(NC(=O)N2CCN(c3nc(N)nc4c3cnn4C)[C@@H](C)C2)c(C)c1` [UCB9608], the “ATGL response to glucose deprivation” value is recorded as “loss of ATGL regulation”.
